From US9023789B2, “Amylin analogs and pharmaceutical compositions thereof” (Novo Nordisk A/S, priority 2012, dated 2015)
Values belong to the compound of their own block, whether it stands above or below them. Numbered stars: 1 amine (or outer) side, 2 acyl side, 3 side chain; on linkers, the order of the positions; unused ones are H or OH. Bridge positions count the residues as written; N and C are the ends. Side chains are listed from the residue outwards. Peptide text beside a SMILES is read from it. * marks the point of attachment. C20 diacid = O=C(O)CCCCCCCCCCCCCCCCCCC(=O)*; γGlu = O=C(O)[C@H](CCC(=O)[*:2])N[*:1]

Key:
[1] = target: T1, human amylin 3(a) receptor (human calcitonin receptor + RAMP-3) in BHK570 cells (Homo sapiens, UniProt O60896+P30988); assay: ASSAY (II)a functional assay, human amylin receptor (CRE luciferase); format: cell-based
T1 construct: expressed in transfected cells
How it was run: (§1)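 Receptor activation is measured as cAMP-driven CRE-luciferase expression in BHK cells expressing the calcitonin receptor, with RAMP-3 co-expressed to form the amylin 3(a) receptor. Cells are exposed to compound for 3 hours at 37° C, and luciferase is then quantified by luminescence.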

[2] = ASSAY (III) ThT fibrillation assay for physical stability; format: physicochemical
How it was run: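 Physical stability scored by ThT fluorescence (444 nm excitation, 485 nm emission) tracked every 20 min during 37 °C incubation with 960 rpm shaking, ThT at 1 μM final. Values are replicate means with SD at chosen times; HPLC against pramlintide standard gives initial and post-assay soluble concentrations.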

[3] = ASSAY (X) pK, determination of T½ in rat; format: in vivo; details: male, Sprague Dawley, plasma, iv, 20 nmol/kg
[4] = target: T2, human calcitonin (a) receptor in BHK570 cells (Homo sapiens, UniProt P30988); assay: ASSAY (II)a functional assay, human calcitonin receptor (CRE luciferase); format: cell-based; details: read-out: hCTR funct. EC50
T2 construct: expressed in transfected cells
T2 sequence (P30988 25-474): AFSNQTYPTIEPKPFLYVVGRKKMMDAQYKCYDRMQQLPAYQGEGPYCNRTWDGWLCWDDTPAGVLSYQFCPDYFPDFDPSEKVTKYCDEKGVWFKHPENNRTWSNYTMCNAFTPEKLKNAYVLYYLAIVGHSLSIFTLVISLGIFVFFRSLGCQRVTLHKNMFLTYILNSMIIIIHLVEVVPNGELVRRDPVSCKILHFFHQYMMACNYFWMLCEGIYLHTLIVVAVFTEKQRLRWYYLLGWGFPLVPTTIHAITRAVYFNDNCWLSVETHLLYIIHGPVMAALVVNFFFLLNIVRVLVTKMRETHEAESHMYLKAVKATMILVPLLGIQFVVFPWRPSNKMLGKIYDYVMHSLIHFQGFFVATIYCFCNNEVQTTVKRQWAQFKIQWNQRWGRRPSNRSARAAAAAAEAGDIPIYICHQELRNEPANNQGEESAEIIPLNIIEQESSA
How it was run: as §1

[5] = target: T3, human calcitonin receptor (Homo sapiens, UniProt P30988); assay: ASSAY (VII) binding to the human calcitonin receptor (SPA, 125I-Calcitonin); details: read-out: hCTR bind IC50;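 further: cell membranes (35 ng/µL) combined with SPA beads in 40 µL of pH 7.4 Hepes buffer, 384-well format, signal counted on a TopCounter instrument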
T3 construct: expressed in transfected cells
T3 sequence (P30988 25-474): T2 sequence (P30988 25-474)

[6] = hCTR funct. EC50 divided by hAmylin-R funct. EC50
[7] = hCTR funct. EC50 over hAmylin-R funct. EC50
[8] = human functional selectivity: hCTR funct. EC50 / hAmylin-R funct. EC50

T1 sequence (O60896 24-148, one chain of several): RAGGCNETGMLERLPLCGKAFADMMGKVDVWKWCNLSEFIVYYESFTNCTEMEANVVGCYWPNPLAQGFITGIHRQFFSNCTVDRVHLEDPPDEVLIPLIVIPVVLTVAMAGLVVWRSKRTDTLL

Ratio hCT/hAmylin funct. [1, 6]: 5.2 | Ratio hCT/hAmylin funct. [1, 7]: 5.2 | Ratio hCT/hAmylin funct. [1, 8]: 5.2 | ThT pH 4.0 lag time (h) [2]: 35 h | half-life [3]: 1020 min
Compound: CC[C@H](C)[C@H](NC(=O)[C@H](C)NC(=O)CNC(=O)[C@H](Cc1ccccc1)NC(=O)[C@H](CC(N)=O)NC(=O)[C@@H]1CCCN1C(=O)[C@H](CO)NC(=O)[C@H](CO)NC(=O)[C@H](Cc1c[nH]cn1)NC(=O)[C@H](CCCNC(=N)N)NC(=O)[C@H](CC(C)C)NC(=O)[C@H](Cc1ccccc1)NC(=O)[C@H](CCC(=O)O)NC(=O)[C@H](C)NC(=O)[C@H](CC(C)C)NC(=O)[C@H](CCCNC(=N)N)NC(=O)[C@H](CCC(N)=O)NC(=O)[C@@H](NC(=O)[C@H](C)NC(=O)[C@@H]1CSSC[C@H](NC(=O)[C@@H](N)CCCCNC(=O)CC[C@H](NC(=O)CCCCCCCCCCCCCCCCCCC(=O)O)C(=O)O)C(=O)N[C@@H](CC(N)=O)C(=O)N[C@@H]([C@@H](C)O)C(=O)N[C@@H](C)C(=O)N[C@@H]([C@@H](C)O)C(=O)N1)[C@@H](C)O)C(=O)N1CCC[C@H]1C(=O)N[C@@H](CO)C(=O)N[C@@H](CO)C(=O)N[C@H](C(=O)N[C@@H](CC(N)=O)C(=O)N[C@H](C(=O)NCC(=O)N1CCC[C@H]1C(=O)N[C@@H](CCC(=O)O)C(=O)N[C@H](C(=O)N[C@@H](Cc1ccc(O)cc1)C(N)=O)[C@@H](C)O)C(C)C)[C@@H](C)O [Example 109] (H-K([γGlu-C20 diacid])CNTATCATQRLAEFLRHSSPNFGAIPSSTNVGPETY-NH2; disulfide 2-7 (inferred); N-terminus assumed)

Ratio hCT/hAmylin funct. [1, 6]: 37.3 | Ratio hCT/hAmylin funct. [1, 7]: 37.3 | Ratio hCT/hAmylin funct. [1, 8]: 37.3 | ThT pH 4.0 lag time (h) [2]: 21 h | half-life [3]: 1080 min
Compound: CC[C@H](C)[C@H](NC(=O)[C@H](C)NC(=O)CNC(=O)[C@H](Cc1ccccc1)NC(=O)[C@H](CC(N)=O)NC(=O)[C@@H]1CCCN1C(=O)[C@H](CO)NC(=O)[C@H](CO)NC(=O)[C@H](Cc1c[nH]cn1)NC(=O)[C@H](CCCNC(=N)N)NC(=O)[C@H](CC(C)C)NC(=O)[C@H](Cc1ccccc1)NC(=O)[C@H](CC(N)=O)NC(=O)[C@H](C)NC(=O)[C@H](CC(C)C)NC(=O)[C@H](CCCNC(=N)N)NC(=O)[C@H](CCC(N)=O)NC(=O)[C@@H](NC(=O)[C@H](C)NC(=O)[C@@H]1CSSC[C@H](NC(=O)[C@@H](N)CCCCNC(=O)CC[C@H](NC(=O)CCCCCCCCCCCCCCCCCCC(=O)O)C(=O)O)C(=O)N[C@@H](CC(N)=O)C(=O)N[C@@H]([C@@H](C)O)C(=O)N[C@@H](C)C(=O)N[C@@H]([C@@H](C)O)C(=O)N1)[C@@H](C)O)C(=O)N1CCC[C@H]1C(=O)N[C@@H](CO)C(=O)N[C@@H](CO)C(=O)N[C@H](C(=O)N[C@@H](CC(N)=O)C(=O)N[C@H](C(=O)NCC(=O)N[C@@H](Cc1c[nH]cn1)C(=O)N[C@@H](CC(N)=O)C(=O)N[C@H](C(=O)N[C@@H](Cc1ccc(O)cc1)C(N)=O)[C@@H](C)O)C(C)C)[C@@H](C)O [Example 77]

Continued, compound first:

Compound: CC[C@H](C)[C@H](NC(=O)[C@H](C)NC(=O)CNC(=O)[C@H](Cc1ccccc1)NC(=O)[C@H](CC(N)=O)NC(=O)[C@@H]1CCCN1C(=O)[C@H](CO)NC(=O)[C@H](CO)NC(=O)[C@H](Cc1c[nH]cn1)NC(=O)[C@H](CCCNC(=N)N)NC(=O)[C@H](CC(C)C)NC(=O)[C@H](Cc1ccccc1)NC(=O)[C@H](Cc1c[nH]cn1)NC(=O)[C@H](C)NC(=O)[C@H](CC(C)C)NC(=O)[C@H](CCCNC(=N)N)NC(=O)[C@H](CCC(N)=O)NC(=O)[C@@H](NC(=O)[C@H](C)NC(=O)[C@@H]1CSSC[C@H](NC(=O)[C@@H](N)CCCCNC(=O)CC[C@H](NC(=O)CCCCCCCCCCCCCCCCCCC(=O)O)C(=O)O)C(=O)N[C@@H](CC(N)=O)C(=O)N[C@@H]([C@@H](C)O)C(=O)N[C@@H](C)C(=O)N[C@@H]([C@@H](C)O)C(=O)N1)[C@@H](C)O)C(=O)N1CCC[C@H]1C(=O)N[C@@H](CO)C(=O)N[C@@H](CO)C(=O)N[C@H](C(=O)N[C@@H](CC(N)=O)C(=O)N[C@H](C(=O)NCC(=O)N1CCC[C@H]1C(=O)N[C@@H](CC(N)=O)C(=O)N[C@H](C(=O)N[C@@H](Cc1ccc(O)cc1)C(N)=O)[C@@H](C)O)C(C)C)[C@@H](C)O [Example 67] (H-K([γGlu-C20 diacid])CNTATCATQRLAHFLRHSSPNFGAIPSSTNVGPNTY-NH2; disulfide 2-7 (inferred); N-terminus assumed)
Ratio hCT/hAmylin funct. [1, 6]: 5.2 | Ratio hCT/hAmylin funct. [1, 8]: 5.2 | ThT pH 4.0 lag time (h) [2]: 26 h | half-life [3]: 420 min

Compound: CC[C@H](C)[C@H](NC(=O)[C@H](C)NC(=O)CNC(=O)[C@H](Cc1ccccc1)NC(=O)[C@H](CC(N)=O)NC(=O)[C@@H]1CCCN1C(=O)[C@H](CO)NC(=O)[C@H](CO)NC(=O)[C@H](Cc1c[nH]cn1)NC(=O)[C@H](CCCNC(=N)N)NC(=O)[C@H](CC(C)C)NC(=O)[C@H](Cc1ccccc1)NC(=O)[C@H](CC(=O)O)NC(=O)[C@H](C)NC(=O)[C@H](CC(C)C)NC(=O)[C@H](CCCNC(=N)N)NC(=O)[C@H](CCC(N)=O)NC(=O)[C@@H](NC(=O)[C@H](C)NC(=O)[C@@H]1CSSC[C@H](NC(=O)[C@@H](N)CCCCNC(=O)CC[C@H](NC(=O)CC[C@H](NC(=O)CCCCCCCCCCCCCCCCCCC(=O)O)C(=O)O)C(=O)O)C(=O)N[C@@H](CC(N)=O)C(=O)N[C@@H]([C@@H](C)O)C(=O)N[C@@H](C)C(=O)N[C@@H]([C@@H](C)O)C(=O)N1)[C@@H](C)O)C(=O)N1CCC[C@H]1C(=O)N[C@@H](CO)C(=O)N[C@@H](CO)C(=O)N[C@H](C(=O)N[C@@H](CC(N)=O)C(=O)N[C@H](C(=O)NCC(=O)N[C@@H](CO)C(=O)N[C@@H](CC(=O)O)C(=O)N[C@H](C(=O)N[C@@H](Cc1ccc(O)cc1)C(N)=O)[C@@H](C)O)C(C)C)[C@@H](C)O [Example 2] (H-K([γGlu-γGlu-C20 diacid])CNTATCATQRLADFLRHSSPNFGAIPSSTNVGSDTY-NH2; disulfide 2-7; N-terminus assumed)
Ratio hCT/hAmylin funct. [1, 6]: 16.4 | Ratio hCT/hAmylin funct. [1, 7]: 16.4 | Ratio hCT/hAmylin funct. [1, 8]: 16.4 | ThT pH 4.0 lag time (h) [2]: 10 h | half-life [3]: 1680 min

Compound: CC[C@H](C)[C@H](NC(=O)[C@H](C)NC(=O)CNC(=O)[C@H](Cc1ccccc1)NC(=O)[C@H](CC(N)=O)NC(=O)[C@@H]1CCCN1C(=O)[C@H](CO)NC(=O)[C@H](CO)NC(=O)[C@H](Cc1c[nH]cn1)NC(=O)[C@H](CCCNC(=N)N)NC(=O)[C@H](CC(C)C)NC(=O)[C@H](Cc1ccccc1)NC(=O)[C@H](CCC(=O)O)NC(=O)[C@H](C)NC(=O)[C@H](CC(C)C)NC(=O)[C@H](CCCNC(=N)N)NC(=O)[C@H](CCC(N)=O)NC(=O)[C@@H](NC(=O)[C@H](C)NC(=O)[C@@H]1CSSC[C@H](NC(=O)[C@H](CCCCN)NC(=O)CC[C@H](NC(=O)CCCCCCCCCCCCCCCCCCC(=O)O)C(=O)O)C(=O)N[C@@H](CC(N)=O)C(=O)N[C@@H]([C@@H](C)O)C(=O)N[C@@H](C)C(=O)N[C@@H]([C@@H](C)O)C(=O)N1)[C@@H](C)O)C(=O)N1CCC[C@H]1C(=O)N[C@@H](CO)C(=O)N1CCC[C@H]1C(=O)N[C@H](C(=O)N[C@@H](CC(N)=O)C(=O)N[C@H](C(=O)NCC(=O)N[C@@H](CO)C(=O)N[C@@H](CC(N)=O)C(=O)N[C@H](C(=O)N[C@@H](Cc1ccc(O)cc1)C(N)=O)[C@@H](C)O)C(C)C)[C@@H](C)O [Example 37] ({C20 diacid-γGlu}-KCNTATCATQRLAEFLRHSSPNFGAIPSPTNVGSNTY-NH2; disulfide 2-7 (inferred))
Ratio hCT/hAmylin funct. ([1]; hCTR funct. EC50 / hAmylin-R funct. EC50): 4.0 | Ratio hCT/hAmylin funct. [1, 6]: 4.0 | Ratio hCT/hAmylin funct. [1, 7]: 4.0 | EC50 ([1]; human amylin receptor functional potency, assay (II), read-out: hAmylin-R funct. EC50): 0.092 nM | Ratio hCT/hAmylin funct. [1, 8]: 4.0 | EC50 [4]: 0.372 nM | ThT pH 4.0 lag time (h) [2]: 15 h | IC50 [5]: 2.18 nM
